Experimental data taken from ChEMBL document CHEMBL1201862, “PubChem BioAssay data set” (2004).
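Dose response: 5 concentrations. Exposure: 48 h. Format: 96-well plates. Endpoint: linear interpolation; highest concentration if not reached. GI50: concentration for 50% inhibition of growth.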 Activity calls are given as the source filed them. No stated cut-off is given here; in the data, active = GI50 up to about 1.1 µM and inactive = higher.

What was measured:
Test in all cases: NCI tumour cell line growth inhibition, 48 h
DMS-273 = system: DMS-273
KM-20L2 = system: KM-20L2
M19-MEL = system: M19-MEL
SNB-78 = system: SNB-78
DLD-1 = system: DLD-1
DMS-114 = system: DMS-114
HOP-18 = system: HOP-18
RXF 631 = system: RXF 631
XF498 = system: XF498

SMILES	GI50 (DMS-273)	GI50 (KM-20L2)	GI50 (M19-MEL)	GI50 (SNB-78)	GI50 (DLD-1)	GI50 (DMS-114)	GI50 (HOP-18)	GI50 (RXF 631)	GI50 (XF498)
COc1cccc(/C=N/C23CC4CC(CC(C4)C2)C3)c1	> 100 µM (inactive)	> 100 µM (inactive)	> 100 µM (inactive)	> 100 µM (inactive)	–	–	–	–	–
COc1ccc(C2(CN(C)C)COc3cc(OC)c(OC)cc3C2=O)cc1OC (centres undefined)	–	> 100 µM (inactive)	66.8 µM (inactive)	41.3 µM (inactive)	20.1 µM (inactive)	23.6 µM (inactive)	> 100 µM (inactive)	75.7 µM (inactive)	30.1 µM (inactive)
Nc1cccc2c1-c1c(cccc1[N+](=O)[O-])C2=O	> 100 µM (inactive)	> 100 µM (inactive)	> 100 µM (inactive)	> 100 µM (inactive)	> 100 µM (inactive)	> 100 µM (inactive)	> 100 µM (inactive)	–	–
COC1=CC(=O)C2C(C1=O)C(c1ccccc1)[C@H]2C (some centres undefined)	> 100 µM (inactive)	–	–	> 10 µM (inactive)	> 10 µM (inactive)	–	–	–	22.3 µM (inactive)
O=C(c1ccccc1)[C@H]1Nc2ccc(Cl)cc2[C@H]2c3ccccc3O[C@H]21	18.7 µM (inactive)	14.9 µM (inactive)	19.1 µM (inactive)	14.9 µM (inactive)	14 µM (inactive)	15.8 µM (inactive)	11.7 µM (inactive)	–	14.7 µM (inactive)
O=c1cc2n(c(=O)[nH]1)C1OC(C(O)C1O)[C@H]2CCO (some centres undefined)	> 100 µM (inactive)	> 100 µM (inactive)	> 100 µM (inactive)	> 100 µM (inactive)	> 100 µM (inactive)	> 100 µM (inactive)	–	–	–
CC(C)C1C(=O)NC(CO)Cc2c[nH]c3c(C(c4c[nH]c5ccccc45)C(O)CO)ccc(c23)N1C (centres undefined)	> 100 µM (inactive)	–	> 100 µM (inactive)	54.7 µM (inactive)	> 100 µM (inactive)	–	5.56 µM (inactive)	–	20 µM (inactive)
Brc1ccc(C2SCc3nc4ccccc4n32)cc1 (centres undefined)	–	–	12.4 µM (inactive)	6.32 µM (inactive)	10.5 µM (inactive)	–	45.5 µM (inactive)	–	11.8 µM (inactive)
CCCCCCCCc1cc2c(O)c(c1)Cc1cc(CCCCCCCC)cc(c1O)Cc1cc(CCCCCCCC)cc(c1O)Cc1cc(CCCCCCCC)cc(c1O)Cc1cc(CCCCCCCC)cc(c1O)Cc1cc(CCCCCCCC)cc(c1O)C2	–	> 100 µM (inactive)	–	> 100 µM (inactive)	> 100 µM (inactive)	> 100 µM (inactive)	> 100 µM (inactive)	> 100 µM (inactive)	> 100 µM (inactive)
Cc1ccc(F)c2c(=O)cc(-c3ccccc3)[nH]c12	94.6 µM (inactive)	–	> 100 µM (inactive)	–	> 100 µM (inactive)	> 100 µM (inactive)	> 100 µM (inactive)	–	–
CCN(CC)CC(=O)/C=C/c1ccc(C)cc1	22.2 µM (inactive)	20.6 µM (inactive)	17.6 µM (inactive)	51.8 µM (inactive)	25.1 µM (inactive)	21.9 µM (inactive)	23.2 µM (inactive)	–	31 µM (inactive)
Oc1cc(-c2ccccc2)nc2cc(Cl)ccc12	0.526 µM (active)	1.52 µM (inactive)	0.575 µM (active)	3.34 µM (inactive)	0.384 µM (active)	0.383 µM (active)	11.2 µM (inactive)	–	0.304 µM (active)
COC(=O)C1=CCS(=O)(=O)C1	–	> 100 µM (inactive)	> 100 µM (inactive)	> 100 µM (inactive)	> 100 µM (inactive)	> 100 µM (inactive)	> 100 µM (inactive)	> 100 µM (inactive)	> 100 µM (inactive)
CCOc1cn(C2OC(CO)C(O)C2O)c(=O)[nH]c1=O (centres undefined)	> 100 µM (inactive)	> 100 µM (inactive)	> 100 µM (inactive)	> 100 µM (inactive)	90.2 µM (inactive)	> 100 µM (inactive)	> 100 µM (inactive)	–	–
CCOc1ccc(N(CC(=O)N2CC(=O)Nc3cc(C)c(C)cc32)C(C)=O)cc1	> 100 µM (inactive)	> 100 µM (inactive)	> 100 µM (inactive)	> 100 µM (inactive)	> 100 µM (inactive)	–	> 100 µM (inactive)	–	> 100 µM (inactive)
O=C1CC[C@@H](NC(=O)Cc2ccccc2)C(=O)N1	> 100 µM (inactive)	> 100 µM (inactive)	> 100 µM (inactive)	–	> 100 µM (inactive)	–	> 100 µM (inactive)	–	> 100 µM (inactive)
CCC1CCC2CCCC(C)N12 (centres undefined)	> 100 µM (inactive)	> 100 µM (inactive)	> 100 µM (inactive)	–	> 100 µM (inactive)	> 100 µM (inactive)	> 100 µM (inactive)	> 100 µM (inactive)	> 100 µM (inactive)
O=C1NC2(CCCC2)/C(=N\O)C12CCCC2	> 100 µM (inactive)	–	> 100 µM (inactive)	> 100 µM (inactive)	> 100 µM (inactive)	> 100 µM (inactive)	> 100 µM (inactive)	–	> 100 µM (inactive)
CO[C@H]1CC[C@]2(C)C3=CC[C@@]4(C)C(CC[C@@H]4C(C)CC[C@@H](C)C(C)C)C(=CCC2C1)O3 (some centres undefined)	> 25 µM (inactive)	> 25 µM (inactive)	> 25 µM (inactive)	> 25 µM (inactive)	> 25 µM (inactive)	> 25 µM (inactive)	> 25 µM (inactive)	–	> 25 µM (inactive)
COC(=O)N/N=C(/CCN1CCCC1)CC(c1ccccc1)c1c(O)c2ccccc2oc1=O (centres undefined)	> 100 µM (inactive)	> 100 µM (inactive)	> 100 µM (inactive)	> 100 µM (inactive)	> 100 µM (inactive)	–	> 100 µM (inactive)	–	38.7 µM (inactive)
NCCOCn1cc(Cc2cccc(OCc3ccccc3)c2)c(=O)[nH]c1=O	70 µM (inactive)	> 100 µM (inactive)	–	> 100 µM (inactive)	> 100 µM (inactive)	77.1 µM (inactive)	> 100 µM (inactive)	–	–
Cc1cc(C)c(-n2c(-c3ccc(Br)cc3)cs/c2=N\N=C2C=C(C(C)(C)C)C(=O)C(C(C)(C)C)=C2)c(C)c1	> 100 µM (inactive)	> 100 µM (inactive)	> 100 µM (inactive)	38.7 µM (inactive)	> 100 µM (inactive)	> 100 µM (inactive)	> 100 µM (inactive)	> 100 µM (inactive)	29.9 µM (inactive)
[O-][S+]1Cc2ccccc2CSS1 (centres undefined)	11.8 µM (inactive)	16.9 µM (inactive)	20.2 µM (inactive)	20 µM (inactive)	18.1 µM (inactive)	17.2 µM (inactive)	27.9 µM (inactive)	19.8 µM (inactive)	19.7 µM (inactive)
O=C1CCC2(c3ccc(F)cc3)Nc3cc(Cl)ccc3N12 (centres undefined)	> 100 µM (inactive)	> 100 µM (inactive)	> 100 µM (inactive)	> 100 µM (inactive)	> 100 µM (inactive)	38.8 µM (inactive)	48.3 µM (inactive)	–	20.1 µM (inactive)
N#CC(/C(=N/NC(N)=S)C(=O)Nc1cccc(Cl)c1)c1ccccc1 (centres undefined)	> 100 µM (inactive)	> 100 µM (inactive)	> 100 µM (inactive)	–	> 100 µM (inactive)	> 100 µM (inactive)	> 100 µM (inactive)	> 100 µM (inactive)	> 100 µM (inactive)
